# Several values for one entry are separate records, joined by “and”; a condition that tells them apart may be missing. Equal values may be shown once.
# Tests used:
# [1] = system: E. coli IH3080; test: E-test MIC with or without NAB7061 (4 μg/ml), Mueller-Hinton agar; type: cell-based, Escherichia coli
# Protocol: (§1) MICs were determined by using E-strips (Biodisk Ltd., Solna, Sweden) according to the manufacturer's instructions.
# (§2) The strains originated from ATCC (11 strains), CCUG (11 strains), and NCTC (The National Collection of Type Cultures, Colindale, U.K.; 2 strains). Eight strains (the F-strains) were purchased from Mobidiag Ltd., Helsinki, Finland.
# [2] = system: E. coli ATCC25922; settings: E. coli ATCC25922
# Protocol: as §1, §2
# [3] = system: K. pneumoniae ATCC13883; settings: K. pneumoniae ATCC13883
# Protocol: as §1, §2
# [4] = system: E. cloacae ATCC23355; test: E-test MIC with or without NAB7061 (4 μg/ml), Mueller-Hinton agar; type: cell-based, Enterobacter cloacae
# Protocol: as §1, §2
# [5] = system: E. coli (ATCC25922 and IH3080), K. pneumoniae ATCC13883, and E. cloacae ATCC23355; test: E-test sensitization by NAB7061, range over the tested strains; type: cell-based; settings: four tested strains
# Protocol: as §1
# [6] = system: E. coli IH3080 (K1:O18); test: Experimental E. coli peritonitis model in mice (Example 12); type: in vivo
# Protocol: A suspension of E. coli IH3080 (K1:O18) in saline (0.9% NaCl) was prepared from an overnight culture on a blood agar plate (Statens Serum Institut, Copenhagen, Denmark). All mice (female NMR1 from Harlan Scandinavia, Allerød, Denmark; weight, 25-30 g) were inoculated intraperitoneally with 0.5 ml of the suspension containing 0.96×10^6 CFU per ml in the lateral lower quadrant of the abdomen. At 1 h, the CFU count was determined from three mice and the remaining mice (four mice per group) were treated with a subcutaneous injection of 0.2 ml of erythromycin solution in saline (corresponding to 5 mg/kg body weight) or NAB7061 solution in saline (corresponding to 5 mg/kg body weight), or both erythromycin and NAB7061 (corresponding to 5 mg/kg body weight of both drugs; given at two separate sites). Control group received two 0.2 ml injections of saline. At 4.5 h postinfection, all mice were anaesthetized with CO2 and sacrificed. Sterile saline (2 ml) was injected intraperitoneally and the abdomen was gently massaged before it was opened and the fluid sampled. Appropriate dilutions of the fluid were plated on blood agar plates, the plates were incubated overnight, and the colonies were counted.
# [7] = system: E. coli IH3080; test: Growth inhibition around wells on LB agar plates; type: cell-based, Escherichia coli; settings: 10 μg of compound per well
# Outline: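 Growth inhibition of encapsulated E. coli IH3080 (K1:O018) was assessed on LB agar plates. A suspension of about 10^8 cells/ml in 0.9% NaCl, made from an overnight LB agar culture, was spread across the plate surface and the excess removed. After drying, 2 mm wells were drilled, with 0.9% NaCl as control. Following 18 h at 37° C., inhibition zone diameters around wells were converted to areas in square mm.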
# [8] = system: Acinetobacter baumannii ATCC 19606; test: Growth inhibition around wells on LB agar plates; type: cell-based; settings: A. baumannii ATCC 19606
# [9] = system: Pseudomonas aeruginosa ATCC 27853; test: Growth inhibition around wells on LB agar plates; type: cell-based; settings: Ps. aeruginosa ATCC 27853
# Outline: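 Activity against Pseudomonas aeruginosa ATCC 27853 was assessed by agar well diffusion on LB plates. A suspension of about 10^8 cells/ml in 0.9% NaCl was spread over the agar and the excess removed. Once the surface had dried, 2 mm wells were drilled and filled with peptide dissolved in 0.9% NaCl. Plates were incubated 18 h at 37° C, and inhibition zone diameters were converted to areas in square mm.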
# [10] = system: E. coli ATCC25922; test: Growth inhibition around wells on LB agar plates; type: cell-based, Escherichia coli
# Protocol: (§3) From an overnight-grown culture of IH3080 on LB agar, a suspension of approx. 10^8 cells/ml was prepared in 0.9% NaCl. Aliquots of this suspension were then pipetted on the agar plates and the plates were gently shaken to spread the suspension evenly on the entire surface of the plate. Thereafter, the unabsorbed part of the suspension was removed by using a Pasteur pipette. After the surface had dried, small wells (diameter, 2 mm) were drilled on the plates (five wells per plate) by using a sterile sharp-edged narrow metal tube, single-use pipette tip, and vacuum suction. An alternative method used a swab to spread the inoculum. Samples (4 μl and 10 μl) of the peptide solution in 0.9% NaCl (at concentrations of 1 μg/ml and 0.1 μg/ml) were then pipetted to the wells and the sample fluids were allowed to absorb. Controls included 0.9% NaCl solution without the compound to be tested. The plates were then incubated for 18 h at 37° C. whereafter the diameters of growth inhibition zones around each well were measured; the diameter of the well itself was not reduced. Finally, the diameters were converted to surface areas of growth inhibition (in square mm).
# (§4) The susceptibility of eleven Gram-negative bacterial strains (nine different species) to NAB734 and polymyxin B was compared by using the susceptibility determination method described in Example 2. The strains included those belonging to the species of Serratia marcescens and Proteus mirabilis, both species generally known to be resistant to polymyxin. Furthermore, the susceptibility determination was also performed by using the Gram-positive bacterium, Staphylococcus aureus, also generally known to be polymyxin-resistant. Ten of the strains originated from ATCC (American Type Culture Collection, Manassas, Va., U.S.A.), and one from CCUG (Culture Collection of University of Gothenburg, Sweden). The source of E. coli IH3080 has been described in Example 2. Polymyxin B sulfate was from Sigma-Aldrich (St. Louis, Mo., USA).
# [11] = system: K. pneumoniae ATCC13883; test: Growth inhibition around wells on LB agar plates; type: cell-based, Klebsiella pneumoniae
# Protocol: as §3, §4
# [12] = system: K. pneumoniae CCUG45421; test: Growth inhibition around wells on LB agar plates; type: cell-based, Klebsiella pneumoniae
# Protocol: as §3, §4
# [13] = system: K. oxytoca ATCC13182; test: Growth inhibition around wells on LB agar plates; type: cell-based, Klebsiella oxytoca
# Protocol: as §3, §4
# [14] = system: E. cloacae ATCC23355; test: Growth inhibition around wells on LB agar plates; type: cell-based, Enterobacter cloacae
# Protocol: as §3, §4
# [15] = system: C. freundii ATCC8090; test: Growth inhibition around wells on LB agar plates; type: cell-based, Citrobacter freundii
# Protocol: as §3, §4
# [16] = system: S. marcescens ATCC8100; test: Growth inhibition around wells on LB agar plates; type: cell-based, Serratia marcescens
# Protocol: as §3, §4
# [17] = system: P. mirabilis ATCC29906; test: Growth inhibition around wells on LB agar plates; type: cell-based, Proteus mirabilis
# Protocol: as §3, §4
# [18] = system: S. aureus ATCC 25923; test: Growth inhibition around wells on LB agar plates; type: cell-based, Staphylococcus aureus
# Protocol: as §3, §4
# [19] = system: E. coli IH3080; test: Sensitization to rifampin: growth inhibition around wells on LB plates containing rifampin; type: cell-based, Escherichia coli; settings: 4 μg of compound
# [20] = system: A. baumannii ATCC 19606; test: as above; type: cell-based, Acinetobacter baumannii; settings: 4 μg
# [21] = system: Ps. aeruginosa ATCC 27853; test: as above; type: cell-based, Pseudomonas aeruginosa; settings: 4 μg
compound,measurement,setting,value
CC[C@H]1OC(=O)[C@H](C)[C@@H](O[C@H]2C[C@@](C)(OC)[C@@H](O)[C@H](C)O2)[C@H](C)[C@@H](O[C@@H]2O[C@H](C)C[C@H](N(C)C)[C@H]2O)[C@](C)(O)C[C@@H](C)C(=O)[C@H](C)[C@@H](O)[C@]1(C)O [Erythromycin],Sensitization factor to antibiotic (MIC without / with 4 μg/ml of NAB 7061),[1],32-42
same,Sensitization factor to antibiotic (MIC without / with 4 μg/ml of NAB 7061),[2],32-48
same,Sensitization factor to antibiotic (MIC without / with 4 μg/ml of NAB 7061),[3],24-48
same,Sensitization factor to antibiotic (MIC without / with 4 μg/ml of NAB 7061),[4],21-43
same,"Sensitization factor to antibiotic at 4 μg/ml of NAB7061, range over the tested strains",[5],21-48
same,CFU counts in peritoneal fluid,"[6]; 4.5 h postinfection ([…] after treatment), 5 mg/kg subcutaneous",8.9 (±6.4)×10^6 per ml
same,factor by which the bacterial count increased,[6]; from 1 h to 4.5 h postinfection,12
OA-Thr-DSer-cy[Dab-Dab-DPhe-Thr-Dab-Dab-Thr-] [NAB 734],growth inhibition around a well,[7],177 square millimeters
same,growth inhibition around a well,[8]; 4 μg,38 square millimeters and 57 square millimeters
same,growth inhibition around a well,[8]; 10 μg,95 square millimeters and 79 square millimeters
same,growth inhibition around a well,[9]; 4 μg,13 square millimeters
same,growth inhibition around a well,[9]; 10 μg,50 square millimeters
same,growth inhibition around a well,[10]; 4 μg,133 square millimeters
same,growth inhibition around a well,[10]; 10 μg,177 square millimeters
same,growth inhibition around a well,[11]; 4 μg,64 square millimeters
same,growth inhibition around a well,[11]; 10 μg,113 square millimeters
same,growth inhibition around a well,[12]; 4 μg,64 square millimeters
same,growth inhibition around a well,[12]; 10 μg,104 square millimeters
same,growth inhibition around a well,[13]; 4 μg,95 square millimeters
same,growth inhibition around a well,[13]; 10 μg,143 square millimeters
same,growth inhibition around a well,[14]; 4 μg,133 square millimeters
same,growth inhibition around a well,[14]; 10 μg,177 square millimeters
same,growth inhibition around a well,[15]; 4 μg,133 square millimeters
same,growth inhibition around a well,[15]; 10 μg,177 square millimeters
same,growth inhibition around a well,[16]; 4 μg,0 square millimeters
same,growth inhibition around a well,[16]; 10 μg,0 square millimeters
same,growth inhibition around a well,[17]; 4 μg,0 square millimeters
same,growth inhibition around a well,[17]; 10 μg,0 square millimeters
same,growth inhibition around a well,[18]; 4 μg,0 square millimeters
same,growth inhibition around a well,[18]; 10 μg,0 square millimeters
same,growth inhibition around a well in the presence of rifampin,[19]; rifampin 0 μg/ml,113 square millimeters
same,growth inhibition around a well in the presence of rifampin,[19]; rifampin 0.1 μg/ml,154 square millimeters
same,growth inhibition around a well in the presence of rifampin,[19]; rifampin 1.0 μg/ml,201 square millimeters
same,growth inhibition around a well in the presence of rifampin,[20]; rifampin 0 μg/ml,38 square millimeters
same,growth inhibition around a well in the presence of rifampin,[20]; rifampin 0.1 μg/ml,201 square millimeters
same,growth inhibition around a well in the presence of rifampin,[20]; rifampin 0.3 μg/ml,283 square millimeters
same,growth inhibition around a well in the presence of rifampin,[21]; rifampin 0 μg/ml,13 square millimeters
same,growth inhibition around a well in the presence of rifampin,[21]; rifampin 0.3 μg/ml,20 square millimeters

# Source: patent US8329645B2, “Polymyxin derivatives and uses thereof” (priority 2008, dated 2012)
